{"source": "patent US8022051B2", "about": "“Composition for protection and improvement of skin, or reinforcing skin barrier function comprising phosphatidylserine” (Doosan Corporation, priority 2004, dated 2011)", "key": {"[1]": {"tested_on": "skin keratinocyte cell line (HaCaT)", "experiment": "Protection of skin keratinocytes from ultraviolet injury (MTT assay)", "format": "cell-based, human", "details": "25 mJ/cm^2 UVB; phosphatidylserine 20 and 40 μM, WY-14643 200 μM; 24 hours; FIG. 4"}, "[2]": {"tested_on": "erythema formation due to UVB on arm inside parts of examinees", "experiment": "Suppression of skin damage (erythema formation) due to ultraviolet irradiation in examinees", "format": "in vivo, human", "details": "0.5% aqueous solution, 30 μl pre-applied; UVB 2, 3 and 4 MED; compared to the control group; FIG. 1", "protocol": "In order to examine a skin damage (inflammatory response)-alleviating effect of the phosphatidylserine of the invention, which stimulation results from the ultraviolet irradiation, a following experiment was performed. At this time, the skin stimulation (inflammatory response) due to the ultraviolet irradiation was measured with an erythema formation level.\nFirst, it was measured minimal erythma dosage (MED) in arm inside parts of examinees (28 years old or more, 10 women and men, respectively). An aqueous solution including phosphatidylserine 0.5% (aqueous solution phase containing 5% PEG 300; PEG300, Sigma, US) was previously applied to the arm inside parts of the examinees in an amount of 30 μl which were then irradiated with UVB (Sankyo Denki G15T8E sunlamps UV-B, Japan) in an intensity of 2 MED (78 mj/cm^2), 3 MED (117 mj/cm^2) and 4 MED (156 mj/cm^2) to measure suppression degrees of the erythema formation. At this time, a group for which the phosphatidylserine was not treated was used as a control group."}, "[3]": {"target": "T1, PPAR-γ (Homo sapiens, UniProt P37231)", "T1 construct": "expressed in transfected cells; host or cells: HeLa (KCLB No. 10002)", "T1 sequence (P37231 1-505)": "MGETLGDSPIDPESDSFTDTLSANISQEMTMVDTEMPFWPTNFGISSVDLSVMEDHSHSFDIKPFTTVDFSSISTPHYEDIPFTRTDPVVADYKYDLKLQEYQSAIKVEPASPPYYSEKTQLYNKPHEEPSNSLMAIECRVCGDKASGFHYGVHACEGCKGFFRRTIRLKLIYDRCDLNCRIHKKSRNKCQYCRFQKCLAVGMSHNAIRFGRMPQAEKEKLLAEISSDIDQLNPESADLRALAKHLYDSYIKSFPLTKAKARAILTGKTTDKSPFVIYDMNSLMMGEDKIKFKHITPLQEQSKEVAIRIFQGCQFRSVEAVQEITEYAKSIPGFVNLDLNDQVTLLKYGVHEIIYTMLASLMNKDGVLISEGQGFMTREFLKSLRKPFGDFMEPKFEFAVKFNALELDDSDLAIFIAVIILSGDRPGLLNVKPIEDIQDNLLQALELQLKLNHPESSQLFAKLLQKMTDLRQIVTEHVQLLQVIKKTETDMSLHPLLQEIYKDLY", "experiment": "PPAR-γ activation in HeLa cell line (luciferase reporter)", "format": "cell-based", "details": "10 and 50 μM; FIG. 7", "protocol": "In order to examine a PPAR-a activating effect of the phosphatidylserine of the invention, a following experiment was performed. At this time, it was examined activities for the PPAR-a and PPAR-γ retained.\nFirst, a HeLa (Human epithelial carcinoma) (KCLB [Korean Cell Line Bank] No. 10002, Korea) was seeded to a 24-well plate in an amount of 2×10^4 cells/well and then cultured for a day. Next day, in order to perform a cell transfection, 200 ng of PPAR-a over-expression vector, 200 ng of PPRE (peculiar to PPAR-a)-luciferase reporter vector (Promega, USA), and 40 ng of renilla luciferase vector used as the control group in the cell (internal control, i.e., used to examine an transfection efficiency) were mixed in the OMEM (Gibco, USA) culture medium and subject to the transfection to the cell using the lipofectamin (Invitrogen, USA). After four hours, the culture medium was added to be 10% FBS and then cultured for one night. […] An activity of the luciferase was measured with a luminometer using a dual luciferase assay system (Promega, USA). Also in case of PPAR-γ, the same process was performed to measure the activity. At this time, in case of measuring the activity of PPAR-γ, 10 and 50 μM of phosphatidylserine and 50 μM of cyglitazone (Sigma, USA) as the positive control group were treated. […]"}, "[4]": {"tested_on": "skin of back region of CD-1 mouse", "experiment": "Skin differentiation promotion in the mouse (involucrin and loricrin expression)", "format": "in vivo", "details": "0.5% aqueous solution, 50 μl two times per day for two weeks; compared to negative control group; FIG. 6", "protocol": "In order to examine a differentiation promotion of the skin in a mouse model, a following experiment was performed.\nFirst, 0.5% phosphatidylserine aqueous solution was applied to the skin of a back region of the mouse (CD-1 mouse, male&female, 6-8 weeks, Charles River, USA) in an amount of 50 μl two times per a day for two weeks. After that, the skin tissue of the treated region was subject to the biopsy and then the biopsy tissue was fixed to 4% formaldehyde and sliced. Then, antibodies for involucrin and loricrin were attached and an expression amount of the protein was examined."}}, "data": [{"substance": "phosphatidylserine", "values": [{"measurement": "protection of skin keratinocytes from ultraviolet injury (cell survival, MTT)", "setting": "[1]", "result": "protected the skin keratinocytes from the ultraviolet injury"}, {"measurement": "erythema formation", "setting": "[2]", "result": "considerably suppressed"}, {"measurement": "activity of PPAR-γ (luciferase)", "setting": "[3]", "result": "had no influence"}, {"measurement": "expression amounts of involucrin and loricrin in skin", "setting": "[4]", "result": "remarkably increased"}]}]}
